ChEMBL document CHEMBL3046747, “Assessment of species specificity of moulting accelerating compounds in Lepidoptera: comparison of activity between Bombyx mori and Spodoptera littoralis by in vitro reporter and in vivo toxicity assays” (Pest Manag Sci, 2010)

What was measured:
[1] = target: T1, Ecdysone receptor (Bombyx mori) (UniProt P49881); test: Agonist activity at ecdysone receptor in Bombyx mori Bm5 cells after 24 hr by luciferase reporter gene assay relative to tebufenozide; format: cell-based
T1 sequence (whole entry): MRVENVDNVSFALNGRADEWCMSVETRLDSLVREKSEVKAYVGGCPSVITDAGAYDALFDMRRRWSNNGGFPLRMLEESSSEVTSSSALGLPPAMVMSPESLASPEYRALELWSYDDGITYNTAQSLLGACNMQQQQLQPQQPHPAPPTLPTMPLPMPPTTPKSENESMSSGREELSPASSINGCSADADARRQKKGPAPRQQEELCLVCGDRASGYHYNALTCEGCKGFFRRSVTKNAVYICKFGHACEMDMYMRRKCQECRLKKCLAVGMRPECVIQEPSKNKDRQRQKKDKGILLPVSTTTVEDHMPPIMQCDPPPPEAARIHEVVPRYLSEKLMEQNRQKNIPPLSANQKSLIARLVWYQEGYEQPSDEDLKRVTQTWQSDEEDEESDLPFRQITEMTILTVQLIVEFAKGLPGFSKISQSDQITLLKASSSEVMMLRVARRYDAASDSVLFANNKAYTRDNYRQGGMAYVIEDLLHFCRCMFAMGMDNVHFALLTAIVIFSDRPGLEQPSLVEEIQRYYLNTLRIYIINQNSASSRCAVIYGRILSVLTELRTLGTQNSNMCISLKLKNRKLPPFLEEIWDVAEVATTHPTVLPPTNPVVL

[2] = target: T2, Ecdysone receptor (Spodoptera littoralis) (UniProt E3UJZ5); test: Agonist activity at ecdysone receptor in Spodoptera littoralis Sl2 cells after 24 hr by luciferase reporter gene assay relative to tebufenozide; format: cell-based
T2 sequence (whole entry): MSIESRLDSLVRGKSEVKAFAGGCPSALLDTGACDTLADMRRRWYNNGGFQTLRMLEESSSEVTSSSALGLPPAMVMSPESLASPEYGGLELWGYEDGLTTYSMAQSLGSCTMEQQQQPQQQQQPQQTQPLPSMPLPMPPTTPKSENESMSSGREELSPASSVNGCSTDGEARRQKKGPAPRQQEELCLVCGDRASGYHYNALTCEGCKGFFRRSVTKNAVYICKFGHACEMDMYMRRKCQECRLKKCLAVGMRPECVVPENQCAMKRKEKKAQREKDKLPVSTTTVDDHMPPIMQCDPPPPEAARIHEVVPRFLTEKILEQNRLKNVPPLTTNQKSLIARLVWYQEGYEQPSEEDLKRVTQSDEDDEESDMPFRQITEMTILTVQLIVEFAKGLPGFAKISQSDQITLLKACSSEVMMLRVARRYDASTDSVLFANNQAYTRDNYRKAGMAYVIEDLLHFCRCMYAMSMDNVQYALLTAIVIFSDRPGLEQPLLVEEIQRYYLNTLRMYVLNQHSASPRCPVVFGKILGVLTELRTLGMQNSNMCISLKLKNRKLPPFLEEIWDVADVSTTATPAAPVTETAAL

[3] = system: Bombyx mori; test: Larvicidal activity against Bombyx mori assessed as mortality applied topically after 1 week; format: functional
[4] = target: T3, Ecdysone receptor (Bombyx mori, UniProt P49881); test: Agonist activity at ecdysone receptor in Bombyx mori Bm5 cells after 24 hr by luciferase reporter gene assay; format: cell-based; conditions: read-out: pEC50 (converted)
T3 sequence (P49881 whole entry): T1 sequence (whole entry)

[5] = Selectivity ratio of EC50 for ecdysone receptor in Bombyx mori Bm5 cells to EC50 for ecdysone receptor in Spodoptera littoralis Sl2 cells; format: cell-based
[6] = target: T4, Ecdysone receptor (Spodoptera littoralis, UniProt E3UJZ5); test: Agonist activity at ecdysone receptor in Spodoptera littoralis Sl2 cells after 24 hr by luciferase reporter gene assay; format: cell-based; conditions: read-out: pEC50 (converted)
T4 sequence (E3UJZ5 whole entry): T2 sequence (whole entry)

[7] = system: Spodoptera littoralis; test: Larvicidal activity against Spodoptera littoralis assessed as mortality applied topically after 1 week; format: functional
[8] = Ratio of LD50 for Spodoptera littoralis to LD50 for Bombyx mori; format: functional

SMILES | Efficacy [1] [%] | Efficacy [2] [%] | pLD50 [3] | EC50 [4] [nM] | Ratio EC50 [5] | EC50 [6] [nM] | pLD50 [7] | Ratio [8]
COc1ccc(C(=O)NN(C(=O)c2ccccc2Cl)C(C)(C)C)cc1 | 126 | 85 | 6.53 | 135 | 0.4 | 339 | <5.44 | > 12.3
CCCCCc1ccc(C(=O)NN(C(=O)c2cc(C)cc(C)c2Cl)C(C)(C)C)cc1 | 45 | 76 |  | 1780 | 0.5 | 3550 |  | 
CCCCc1ccc(C(=O)NN(C(=O)c2cc(C)cc(C)c2Cl)C(C)(C)C)cc1 | 45 | 69 |  | 1150 | 1.02 | 1120 |  | 
Cc1ccccc1C(=O)N(NC(=O)c1cccc(F)c1)C(C)(C)C | 92 | 120 |  | 324 | 0.7 | 457 |  | 
Cc1cc(C)c(Cl)c(C(=O)N(NC(=O)c2ccc(Cl)cc2)C(C)(C)C)c1 | 93 | 101 |  | 447 | 0.42 | 1070 |  | 
CCc1ccc(C(=O)NC(CC)(CC)C(=O)c2cc(C)cc(C)c2)cc1 | 95 | 96 |  | 1260 | 0.29 | 4270 |  | 
CCOc1ccccc1C(=O)N(NC(=O)c1ccc(OC)cc1)C(C)(C)C | 59 | 45 |  | 19100 | 0.87 | 21900 |  | 
CCCc1ccc(C(=O)NN(C(=O)c2ccccc2Cl)C(C)(C)C)cc1 | 107 | 75 |  | 30.9 | 0.42 | 74.1 |  | 
CCCCc1ccc(C(=O)NN(C(=O)c2ccccc2OCC)C(C)(C)C)cc1 | 20 | 41 |  | 16200 | 2.09 | 7760 |  | 
CCOc1ccccc1C(=O)N(NC(=O)c1ccc(Cl)cc1)C(C)(C)C | 74 | 80 |  | 7760 | 0.81 | 9550 |  | 
COc1ccc(C(=O)NN(C(=O)c2cc(C)cc(C)c2Cl)C(C)(C)C)cc1 | 100 | 105 |  | 1230 | 0.6 | 2040 |  | 
Cc1ccc(C(=O)NN(C(=O)c2cc(C)cc(C)c2Cl)C(C)(C)C)cc1 | 108 | 85 |  | 302 | 0.22 | 1350 |  | 
CCOc1ccccc1C(=O)N(NC(=O)c1ccc(CC)cc1)C(C)(C)C | 92 | 89 |  | 2880 | 0.42 | 6920 |  | 
CCC(CC)(NC(=O)c1ccc2c(c1C)CCCO2)C(=O)c1cc(C)cc(C)c1 | 113 | 104 |  | 191 | 1.15 | 166 |  | 
Cc1cc(C)c(Cl)c(C(=O)N(NC(=O)c2ccccc2)C(C)(C)C)c1 | 92 | 87 |  | 1170 | 0.68 | 1740 |  | 
CC(C)c1ccc(C(=O)NN(C(=O)c2ccccc2Cl)C(C)(C)C)cc1 | 116 | 95 |  | 6.61 | 0.38 | 17.4 |  | 
CC(C)(C)N(NC(=O)c1ccccc1)C(=O)c1ccc(Cl)c(Cl)c1Cl | 79 | 95 | <5.4 | 3630 | 0.69 | 5250 | <5.4 | 
CCCCCc1ccc(C(=O)NN(C(=O)c2ccccc2Cl)C(C)(C)C)cc1 | 97 | 86 |  | 427 | 1.32 | 324 |  | 
CC(C)(C)N(NC(=O)c1ccccc1)C(=O)c1ccccc1C(F)(F)F | 92 | 98 |  | 871 | 1.1 | 794 |  | 
